Laboratory results as given in patent US20130184280A1, “SUBSTITUTED THIAZOLES AS VEGFR2 KINASE INHIBITORS” (TELIK, INC., priority 2011, published 2013).

What was measured:
[1] = tested on: HCT116 (human colon carcinoma); assay: In Vivo HCT116 Xenograft Model; settings: athymic nu/nu mice
[2] = In Vitro Cytotoxicity Assay HL60 (CellTiter-Glo); format: cell-based; settings: human, HL60 promyelocytic leukemia cells; HL 60 cells, cultured three days
Method: (§1) The cell lines HL60 (human promyelocytic leukemia) and HCT116 (human colon carcinoma) were obtained from the American Type Culture Collection, Manassas, Va., U.S.A. All products were used in accordance with manufacturer's directions. The cytotoxicity assays were conducted in triplicate, in each case with solvent control.
(§2) Log-phase cells were trypsinized, collected by centrifugation, and resuspended in a small volume of fresh medium, and the density of viable cells was determined following Trypan Blue staining Cells were diluted in fresh media, the test compounds (concentrations between 0.1 μM and 200 μM, dissolved in DMSO, 50 μL) added immediately after dilution to achieve a final DMSO concentration of 0.5%, then the suspensions added at 150 μL/well to 96-well plates, and incubated overnight to allow attachment in the case of adherent cells. The cells were cultured for three days (about three doubling times). The cells were then collected by centrifugation, and 100 μL of the culture supernatant was replaced by the CellTiter-Glo reagent. After incubation for 15 minutes at room temperature, the plate was read with a luminometer. […] The table gives cytotoxicity IC50s in μm.

[3] = In Vitro Cytotoxicity Assay HCT116 (CellTiter-Glo); format: cell-based; settings: human, HCT116 colon carcinoma cells, cultured three days
Method: as §1, §2

VEGFR2 kinase = target: T1, VEGFR2 kinase (Homo sapiens, UniProt P35968); assay: In Vitro VEGFR2 Kinase Assay; format: biochemical; settings: FP; CSKtide substrate, 60 minutes at room temperature
T1 construct: purchased InVitrogen
Method: In Vitro VEGFR2 Kinase Assay
50 ng/well VEGFR2 kinase (from InVitrogen) was mixed in buffer (14.5 μL/well). To this were added, 0.5 μL of the compound of this invention at a concentration of 2.5% in DMSO. After incubatiuon for 5 minutes at room temperature, 5 μL of substrate (CSKtide, 400 nM) and 8 μL ATP were added. The mixture was incubated for 60 minutes at room temperature and 60 uL of binding reagent (beads) was added. After incubation overnight at room temperature, the plate was read with a LJL plate reader.

[4] = 30 mg/Kg intraperitoneally once/day on days 1-5 and 8-12, measured 2 days after last treatment

T1 sequence (P35968 20-1356): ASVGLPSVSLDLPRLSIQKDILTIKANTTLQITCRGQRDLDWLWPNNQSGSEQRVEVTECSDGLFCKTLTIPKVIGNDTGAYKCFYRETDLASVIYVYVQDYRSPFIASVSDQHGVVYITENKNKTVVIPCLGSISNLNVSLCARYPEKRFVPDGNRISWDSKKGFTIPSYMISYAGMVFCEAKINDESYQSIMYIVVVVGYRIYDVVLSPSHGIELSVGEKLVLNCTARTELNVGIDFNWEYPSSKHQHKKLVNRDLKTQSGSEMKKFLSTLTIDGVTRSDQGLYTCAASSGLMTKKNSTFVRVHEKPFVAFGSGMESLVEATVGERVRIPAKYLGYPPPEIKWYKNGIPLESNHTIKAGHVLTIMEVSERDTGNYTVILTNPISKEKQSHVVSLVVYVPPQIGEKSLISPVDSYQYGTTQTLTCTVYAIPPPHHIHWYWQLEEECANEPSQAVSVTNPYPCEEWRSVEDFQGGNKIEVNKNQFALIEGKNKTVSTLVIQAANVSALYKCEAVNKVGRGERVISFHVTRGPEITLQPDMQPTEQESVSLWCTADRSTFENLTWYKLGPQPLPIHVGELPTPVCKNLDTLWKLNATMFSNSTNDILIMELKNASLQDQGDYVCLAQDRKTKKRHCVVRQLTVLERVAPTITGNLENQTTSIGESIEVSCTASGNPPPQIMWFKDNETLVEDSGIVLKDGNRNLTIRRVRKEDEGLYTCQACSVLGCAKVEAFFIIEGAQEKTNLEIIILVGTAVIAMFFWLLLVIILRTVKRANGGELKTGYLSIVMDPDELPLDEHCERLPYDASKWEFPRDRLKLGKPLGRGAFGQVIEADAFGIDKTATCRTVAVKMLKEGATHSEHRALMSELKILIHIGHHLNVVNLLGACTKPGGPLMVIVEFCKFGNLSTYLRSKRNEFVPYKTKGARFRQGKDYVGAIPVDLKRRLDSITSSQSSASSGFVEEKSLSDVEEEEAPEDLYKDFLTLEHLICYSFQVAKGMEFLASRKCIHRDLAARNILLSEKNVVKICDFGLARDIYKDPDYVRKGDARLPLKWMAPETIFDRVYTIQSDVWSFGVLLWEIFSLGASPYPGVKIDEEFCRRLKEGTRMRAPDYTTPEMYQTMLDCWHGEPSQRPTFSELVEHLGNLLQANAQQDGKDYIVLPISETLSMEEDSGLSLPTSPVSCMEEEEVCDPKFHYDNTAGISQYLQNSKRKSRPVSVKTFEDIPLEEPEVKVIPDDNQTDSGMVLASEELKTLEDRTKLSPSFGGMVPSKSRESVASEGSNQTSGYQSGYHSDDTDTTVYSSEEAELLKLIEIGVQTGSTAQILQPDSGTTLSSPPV

SMILES: Nc1ncncc1-c1nc(-c2cccc(NC(=O)Nc3cccc(CN4CCOCC4)c3)c2)cs1 [Compound 46]
- Tumor growth inhibition [1, 4]: showed inhibition of tumor growth compared to vehicle
- Tumor growth inhibition ([1]; administered orally): showed inhibition of tumor growth when administered orally
- IC50 at 3 days [2]: 700 nM
- IC50 at 3 days [3]: 8000 nM
- IC50 (VEGFR2 kinase): 20 nM

SMILES: Cc1cccc(NC(=O)Nc2cccc(-c3csc(-c4cncnc4N)n3)c2)c1 [Compound 17, 1-(3-(2-(4-aminopyrimidin-5-yl)thiazol-4-yl)phenyl)-3-m-tolylurea]
- Tumor growth inhibition [1, 4]: showed inhibition of tumor growth compared to vehicle
- IC50 at 3 days [2]: 300 nM
- IC50 at 3 days [3]: 1000 nM
- IC50 (VEGFR2 kinase): 10 nM

SMILES: Nc1ncncc1-c1nc(-c2cccc(NC(=O)c3ccccc3)c2)cs1 [Compound 3]
- Tumor growth inhibition [1, 4]: showed inhibition of tumor growth compared to vehicle
- IC50 at 3 days [2]: 3000 nM
- IC50 at 3 days [3]: 20000 nM
- IC50 (VEGFR2 kinase): 20 nM
